Assay results from patent US7112565B2, “Stabilized pharmaceutical composition in lyophilized form” (Astellas Pharma Inc., priority 1999, dated 2006).

How the values were obtained:
Format in all cases: physicochemical
[1] = Test Example 4: stability of lyophilized compositions of 200 mg of lactose and Compound (II) in vial
Description: 10 mg of Compound (II) and, as a stabilizer, 100 mg of lactose or 9 mg of sodium chloride were dissolved completely in 1 ml of water. The resulting solutions were lyophilized and maintained at 70° C. in glass vials. Nine days after, the resulting compositions were tested on their appearance, the residual amount of Compound (II), and others. As a control, used was a solution of Compound (II) without any stabilizers.
Stability of Lyophilized Compositions of 200 mg of Lactose and Compound (II) in Vial
Tests were carried out in the same manner as in Test Example 1 except that 12.5 mg, 25 mg, 50 mg, 75 mg or 100 mg of Compound (II) were used with 200 mg of lactose. […] Regarding all the compositions, their appearance is a white mass, the time for reconstitutional dissolution was 15 seconds, and the color and the clarity of reconstituted solutions of the compositions were colorless and transparent.

[2] = Test Example 6: dependence of stability on the pH of the solution before lyophilizing; details: for Residual amount / Water content / pH of reconstituted solution in 5 ml of purified water: 10 mg Compound (II) + 100 mg lactose
Description: Dependence of the Stability of Lyophilized Compositions of Compound (II) upon the pH Value of the Solution of the Composition before Lyophilizing
10 mg of Compound (II) and, as a stabilizer, 100 mg of lactose were dissolved completely in 1 ml of citrate-NaOH buffer having different pH value between pH 4.0 to 7.0. The resulting solutions having different pH values were lyophilized and maintained at 70° C. in glass vials. Nine days after, the resulting compositions were tested on their pH and the residual amount of Compound (II).

[3] = Test Example 7: dependence of stability on the water content of the composition; details: 10 mg Compound (II) + 50 mg lactose
Description: Dependence of the Stability of Lyophilized Compositions of Compound (II) upon the Water Content of the Composition
10 mg of Compound (II) and, as a stabilizer, 50 mg of lactose were dissolved completely in 1 ml of water. The resulting solutions were lyophilized and maintained at 70° C. in glass vials. Nine days after, the resulting compositions were tested on their pH, their water content and the residual amount of Compound (II).

[4] = 12.5 mg Compound (II) + 200 mg lactose, 0 hours
[5] = 12.5 mg Compound (II) + 200 mg lactose, after 3 months at 40° C. and 75% humidity
[6] = 12.5 mg Compound (II) + 200 mg lactose, after 9 days at 70° C.
[7] = 12.5 mg Compound (II) + 200 mg lactose, after 21 days at 60° C.
[8] = 25 mg Compound (II) + 200 mg lactose, 0 hours
[9] = 25 mg Compound (II) + 200 mg lactose, after 9 days at 70° C.
[10] = 25 mg Compound (II) + 200 mg lactose, after 21 days at 60° C.
[11] = 50 mg Compound (II) + 200 mg lactose, 0 hours
[12] = 50 mg Compound (II) + 200 mg lactose, after 3 months at 40° C. and 75% humidity
[13] = 50 mg Compound (II) + 200 mg lactose, after 9 days at 70° C.
[14] = 50 mg Compound (II) + 200 mg lactose, after 21 days at 60° C.
[15] = 75 mg Compound (II) + 200 mg lactose, 0 hours
[16] = 75 mg Compound (II) + 200 mg lactose, after 3 months at 40° C. and 75% humidity
[17] = 75 mg Compound (II) + 200 mg lactose, after 9 days at 70° C.
[18] = 75 mg Compound (II) + 200 mg lactose, after 21 days at 60° C.
[19] = 100 mg Compound (II) + 200 mg lactose, 0 hours
[20] = 100 mg Compound (II) + 200 mg lactose, after 3 months at 40° C. and 75% humidity
[21] = 100 mg Compound (II) + 200 mg lactose, after 9 days at 70° C.
[22] = 100 mg Compound (II) + 200 mg lactose, after 21 days at 60° C.
[23] = all compositions: 12.5 to 100 mg Compound (II) + 200 mg lactose
[24] = solution pH 4.0 before lyophilizing, 0 hours
[25] = solution pH 4.0 before lyophilizing, 9 days at 70° C.
[26] = solution pH 4.5 before lyophilizing, 0 hours
[27] = solution pH 4.5 before lyophilizing, 9 days at 70° C.
[28] = solution pH 5.0 before lyophilizing, 0 hours
[29] = solution pH 5.0 before lyophilizing, 9 days at 70° C.
[30] = solution pH 5.5 before lyophilizing, 0 hours
[31] = solution pH 5.5 before lyophilizing, 9 days at 70° C.
[32] = solution pH 6.0 before lyophilizing, 0 hours
[33] = solution pH 6.0 before lyophilizing, 9 days at 70° C.
[34] = solution pH 6.5 before lyophilizing, 0 hours
[35] = solution pH 6.5 before lyophilizing, 9 days at 70° C.
[36] = solution pH 7.0 before lyophilizing, 0 hours
[37] = solution pH 7.0 before lyophilizing, 9 days at 70° C.
[38] = water content at 0 hours 0.9%, after 9 days at 70° C.
[39] = water content at 0 hours 1.4%, after 9 days at 70° C.
[40] = water content at 0 hours 2.6%, after 9 days at 70° C.
[41] = water content at 0 hours 3.4%, after 9 days at 70° C.
[42] = water content at 0 hours 5.1%, after 9 days at 70° C.

Work on `CCCCCOc1ccc(-c2cc(-c3ccc(C(=O)NC4CC(O)C(O)NC(=O)C5C(O)C(C)CN5C(=O)C(C(O)CC(N)=O)NC(=O)C(C(O)C(O)c5ccc(O)c(OS(=O)(=O)[O-])c5)NC(=O)C5CC(O)CN5C(=O)C(C(C)O)NC4=O)cc3)no2)cc1.[Na+]` (centres unmarked) [Compound (II)] yielded a Residual amount [1, 4] of 100.0%, a Total impurities [1, 4] of 2.24% and a Water content [1, 4] of 1.3%. The “pH of reconstituted solution in 5 ml of purified water” value (“pH … of purified water” for short) [1, 4] was 6.63, the Residual amount [1, 5] was 99.6% and the Total impurities [1, 5] was 2.71%. The “pH … of purified water” value [1, 5] was 6.08, the Residual amount [1, 6] was 98.1% and the Total impurities [1, 6] was 3.95%. The “pH … of purified water” value [1, 6] was 6.15, the Residual amount [1, 7] was 97.5% and the Total impurities [1, 7] was 3.75%. The “pH … of purified water” value [1, 7] was 6.31, the Residual amount [1, 8] was 100.0% and the Total impurities [1, 8] was 2.25%. For the same compound, the Water content [1, 8] was 1.1%, the “pH … of purified water” value [1, 8] was 6.37 and the Total impurities ([1]; 25 mg Compound (II) + 200 mg lactose, after 3 months at 40° C. and 75% humidity) was 2.68%. The Residual amount [1, 9] was 99.3%, the Total impurities [1, 9] was 4.03% and the “pH … of purified water” value [1, 9] was 6.07. The Residual amount [1, 10] was 98.2%, the Total impurities [1, 10] was 3.49% and the “pH … of purified water” value [1, 10] was 6.11. The Residual amount [1, 11] was 100.0%, the Total impurities [1, 11] was 2.25% and the Water content [1, 11] was 1.2%. The “pH … of purified water” value [1, 11] was 6.26, the Residual amount [1, 12] was 100.5% and the Total impurities [1, 12] was 2.74%. The “pH … of purified water” value [1, 12] was 6.00, the Residual amount [1, 13] was 97.9% and the Total impurities [1, 13] was 3.95%. The “pH … of purified water” value [1, 13] was 5.99, the Residual amount [1, 14] was 97.3% and the “pH … of purified water” value [1, 14] was 6.00. The Residual amount [1, 15] was 100.0%, the Total impurities [1, 15] was 2.28% and the Water content [1, 15] was 0.9%. For the same compound, the “pH … of purified water” value [1, 15] was 6.13, the Residual amount [1, 16] was 99.0% and the Total impurities [1, 16] was 2.76%. For the same compound, the “pH … of purified water” value [1, 16] was 6.04, the Residual amount [1, 17] was 98.1% and the Total impurities [1, 17] was 4.14%. For the same compound, the “pH … of purified water” value [1, 17] was 5.95, the Total impurities [1, 18] was 3.83% and the “pH … of purified water” value [1, 18] was 5.96. The Residual amount [1, 19] was 100.0%, the Total impurities [1, 19] was 2.46% and the Water content [1, 19] was 1.3%. The “pH … of purified water” value [1, 19] was 6.03, the Residual amount [1, 20] was 99.5% and the Total impurities [1, 20] was 2.79%. The Residual amount [1, 21] was 97.8%, the Total impurities [1, 21] was 4.15% and the “pH … of purified water” value [1, 21] was 5.92. The Residual amount [1, 22] was 96.7%, the Total impurities [1, 22] was 3.92% and the “pH … of purified water” value [1, 22] was 5.88. For the same compound, the Appearance [1, 23] was “white mass”, the “Clarity of reconstituted solutions” value [1, 23] was “transparent” and the “Color of reconstituted solutions” value [1, 23] was “colorless”. For the same compound, the “Time for reconstitutional dissolution” value [1, 23] was 15 s, the Residual amount ([2]; all solution pH values 4.0 to 7.0, 0 hours) was 100% and the Water content [2, 24] was 0.2%. The “pH … of purified water” value [2, 24] was 3.9, the Residual amount [2, 25] was 94.4% and the “pH … of purified water” value [2, 25] was 4.0. For the same compound, the Water content [2, 26] was 0.2%, the “pH … of purified water” value [2, 26] was 4.4 and the Residual amount [2, 27] was 95.9%. For the same compound, the “pH … of purified water” value [2, 27] was 4.5, the Water content [2, 28] was 0.3% and the “pH … of purified water” value [2, 28] was 4.8. For the same compound, the Residual amount [2, 29] was 97.4%, the “pH … of purified water” value [2, 29] was 4.9 and the Water content [2, 30] was 0.3%. For the same compound, the “pH … of purified water” value [2, 30] was 5.4, the Residual amount [2, 31] was 98.5% and the “pH … of purified water” value [2, 31] was 5.4. The Water content [2, 32] was 0.3%, the “pH … of purified water” value [2, 32] was 5.8 and the Residual amount [2, 33] was 97.7%. The “pH … of purified water” value [2, 33] was 5.8, the Water content [2, 34] was 0.4% and the “pH … of purified water” value [2, 34] was 6.4. The Residual amount [2, 35] was 96.9%, the “pH … of purified water” value [2, 35] was 6.4 and the Water content [2, 36] was 0.3%. The “pH … of purified water” value [2, 36] was 6.8, the Residual amount [2, 37] was 95.8% and the “pH … of purified water” value [2, 37] was 6.8. The “Stability of composition (conclusion from Table 5)” value ([2]; after lyophilizing the solution at pH 4.0 to 7.0 at least, preferably pH 4.5 to 7.0) was “stable”, the “pH of reconstituted solution in 1 ml of water” value (from here on “pH … of water”) ([3]; all water contents 0.9 to 5.1%, 0 hours) was 7.1 and the Residual amount [3, 38] was 97.6%. For the same compound, the Water content [3, 38] was 2.5%, the “pH … of water” value [3, 38] was 7.5 and the Residual amount [3, 39] was 98.1%. For the same compound, the Water content [3, 39] was 2.9%, the “pH … of water” value [3, 39] was 7.1 and the Residual amount [3, 40] was 97.1%. For the same compound, the Water content [3, 40] was 3.6%, the “pH … of water” value [3, 40] was 6.8 and the Residual amount [3, 41] was 92.7%. For the same compound, the Water content [3, 41] was 4.3%, the “pH … of water” value [3, 41] was 6.8 and the Residual amount [3, 42] was 18.3%. The Water content [3, 42] was 5.4% and the “pH … of water” value [3, 42] was 3.5.
